Tests used:
p16ink4a = p16ink4a level in MEFs by Western blotting; assay type: cell-based, mouse; conditions: Zmpste24−/− MEFs
Procedure: (§1) Western blotting was performed as described previously (Liu et al., 2005). Relative band intensity was measured by IMAGE J® and normalized to corresponding wild-type or untreated controls as indicated.
As resveratrol enhances SIRT1 deacetylase activity by increasing its binding to lamin A, this Example examines the effects of resveratrol treatment on the early senescence in Zmpste24^−/− MEFs. […] As SIRT1 is more highly expressed in stem cells than in somatic differentiated cells and it is critical for maintaining stem cell self-renewal and function (Han et al., 2008; Lee et al., 2011; Saunders et al., 2010), we then tested effects of resveratrol on BMSCs.

Zmpste24−/− mice [1] = test: Survival and body weight of Zmpste24−/− mice treated via drinking water; assay type: in vivo, mouse; conditions: resveratrol 20 μg/ml in drinking water
Procedure: (§2) Zmpste24^−/− mice have been described previously (Pendas et al., 2002). Mouse experimentation was performed in accordance with the guidelines of the Committee on the Use of Live Animals in Teaching and Research (CULATR) at the University of Hong Kong. New-born Zmpste24^−/− mice and wild-type controls were fed with resveratrol (20 μg/ml) or N-acetyl Cysteine (1 mg/ml) in drinking water. The survival of resveratrol-treated, NAC-treated, or vehicle-treated Zmpste24^−/− mice was recorded and their body weight was monitored weekly. The trabecular bone organization and bone mineral density were determined by micro-CT. The survival rate was analyzed by Kaplan-Meier method and statistical comparison was performed by Log-rank (Mantel-Cox) Test.
(§3) Briefly, resveratrol was supplemented at a concentration of 20 μg/ml in drinking water. Four months after treatment, BMSCs were collected for examination and comparison between resveratrol-treated and vehicle-treated Zmpste24^−/− mice.

Zmpste24−/− mice [2] = test: Micro-CT of trabecular bone and bone mineral density in Zmpste24−/− mice; assay type: in vivo, mouse; conditions: resveratrol 20 μg/ml in drinking water, 4 months
Procedure: as §2

Zmpste24−/− mice [3] = test: BMSC colony-forming efficiency after in vivo treatment of Zmpste24−/− mice; design: species or system mouse; conditions: resveratrol 20 μg/ml in drinking water, four months, vs vehicle
Procedure: as §2
Bone marrow stromal cells were isolated and cultured according to modified protocol (Enumeration and Expansion of Mouse Mesenchymal Progenitor Cells Using MESENCUILT®, Stemcell Technologies, Canada). Briefly, bone marrow cells were flushed out from femurs and tibias with α-MEM (Invitrogen, Carlsbad, Calif., USA) supplemented with 20% FBS, and plated in petri dishes. Non-adherent cells were removed on day 3 and medium was replaced every 3 days. […] Colonies containing more than 50 cells were counted. BMSC colony forming efficiency was calculated as number of colonies formed by […] bone marrow nucleated cells. […]

Zmpste24−/− mice [4] = test: HSC population in bone marrow of treated Zmpste24−/− mice (FACS); assay type: in vivo, mouse; conditions: resveratrol 20 μg/ml in drinking water
Procedure: as §2, with “Zmpste24^-/-” for “Zmpste24^−/−”, “([…]” for “(Pendas”, “Test. To analyze hematopoietic stem cells, mononucleated cells were collected by flushing femurs and tibias with staining medium (HBSS supplemented with 2% FBS) and stained with biotin-coupled lineage markers, Biotin-Flt3, PE-Sca-1, APC-c-Kit, and then SAv-PerCP. FACS profile analyses were performed using a BD FACSCalibur.” for “Test.”

Zmpste24−/− mice [5] = test: Catalase, acetyl p53 and H3K9ac levels in BMSCs isolated from treated Zmpste24−/− mice; assay type: in vivo, mouse; conditions: resveratrol 20 μg/ml in drinking water
Procedure: as §2, §1, §3

Oc1ccc(C=Cc2cc(O)cc(O)c2)cc1 [resveratrol]
elevated levels of p16ink4a (p16ink4a): did not reduce
animals still alive (Zmpste24−/− mice [1]; by 26 weeks after birth): ~60%
body weight loss (Zmpste24−/− mice [1]; compared to vehicle-treated controls): significantly slowed down
median survival (Zmpste24−/− mice [1]; vehicle 20 weeks): 27 weeks
maximum lifespan (mean lifespan of the longest-lived 10% of the animals) (Zmpste24−/− mice [1]; vehicle 27.5 weeks): 33.5 weeks
bone mineral density (Zmpste24−/− mice [2]): increased bone mineral density
trabecular structural organization (Zmpste24−/− mice [2]): improved the structural organization
trabecular thickness (Zmpste24−/− mice [2]): increased the trabecular thickness
BMSC colony-forming efficiency (Zmpste24−/− mice [3]): significantly increased
early decline in HSCs (Zmpste24−/− mice [4]): rescued
level of acetyl H3K9 in BMSCs (Zmpste24−/− mice [5]): decreased
level of acetyl p53 in BMSCs (Zmpste24−/− mice [5]): decreased
level of catalase in BMSCs (Zmpste24−/− mice [5]): enhanced
